Columns and labels:
[1] = tested on: permanent cerebral ischemic rats; test: Behavioral disorder and cerebral infarct area in permanent cerebral ischemic rats (FeCl3 on middle cerebral artery); format: in vivo, Wistar rats
Protocol: Experimental Animal: The same as Example 1. Experimental Equipments: COOLPIX955 digital camera, 722 grating spectroscope, XHF-1 high-speed disperser, YKH-II liquid high-speed mixer, WZ-50C2 micro infusion pump. Experimental Methods: Wistar rats were anesthetized by intraperitoneally injecting 12% chloral hydrate in 350 mg/kg, and fixed in lateral decubitus position. The skin at the midpoint on the line from exterior auditory canal to canthus was cut. The muscle was separated layer by layer to expose zygomatic arch and the squamous part of temporal bone. The zygomatic arch was scissored and then placed under an operating microscope. A window of 2 mm diameter was drilled by using a dentistry drill at a position of 2 mm under the anterior joint between zygomatic arch and the squamous part of temporal bone, so as to expose the middle cerebral artery. A little piece of filter paper was applied onto the middle artery, and 10 μl of 50% FeCl3 aqueous solution was dripped onto the filter paper. The filter paper was removed after 30 min, and washed with physiological brine. Two to three drops of penicillin (1.6×10^5 U/mL) were added so as to prevent infection of the cut. Then the cut was sutured layer by layer.

[2] = tested on: cerebral injury-induced cerebral ischemia in rats; test: Neural symptoms induced by cerebral injury in rats; format: in vivo, male Wistar rats; conditions: 50 mg/kg oral 5 minutes after cerebral injury; scored after 24 hours; vs vehicle control
Protocol: Experimental Animals: male Wistar rats
Experimental Methods: Cerebral injury in rats was caused by allowing a cone-shaped metal object weighing 220 g to freely fall from a position of 30 cm height and to strike the skull cap behind the left coronal suture. dl-, d-, and l-NBP (50 mg/kg) and the vehicle (control group) were orally administered after 5 minutes, and the behavioral changes were scored after 24 hours.

[3] = tested on: cerebral edema induced by cerebral artery ligation in rats; test: Cerebral edema induced by ligation of right middle cerebral artery; format: in vivo, male Wistar rats; conditions: 40 and 80 mg/kg oral 15 minutes after ligation; sacrificed after 24 hours
Protocol: Experimental Animals: the same as Example 1. Experimental Equipments: Oxygen analyzer. Experimental Methods: Cerebral edema was induced by the ligation of right middle cerebral artery of rats. After 15 minutes, dl-, d-, and l-NBP (40 and 80 mg/kg) were orally administered. The rats were sacrificed after 24 hours. The forebrain was removed, and the cerebral hemispheres on the left and right side were weighed. Dry weight was obtained by baking for 24 hours under 100° C. The weight of water in the brain tissue was thus calculated by subtracting of dry weight from wet weight. Then, the tissues was nitrified for 4 hours, and pH was adjusted by using HCl. Next, the ion selective electrode was connected onto the oxygen analyzer, and the concentrations of Na^+ and K^+ in the brain tissue were measured.

[4] = tested on: focal cerebral ischemia in rats; test: Memory disorder induced by focal cerebral ischemia (shuttle box, artery ligation by method of Tamura); format: in vivo, male Wistar rats; conditions: 15 and 30 mg/kg oral 15 min after operation; observed after 24 hours; vs vehicle control
Protocol: Experimental Animal: The same as Example 1. Experimental Equipment: Shuttle box. Experimental Methods: • 1. Rats were trained to acquire learning and memory; • 2. Artery ligation: Artery ligation was conducted on rats according to the method of Tamura. After 24 hours, the experiment of learning as in step (1) was repeatedly conducted on rats. • 3. Grouping and administration: the rats were divided into 9 groups, which were normal group, pseudo-operation group, ischemia control group, and groups of dl-, d-, and l-NBP (15 and 30 mg/kg). The rats were orally administered at 15 min after the operation, and the changes of latency of active and passive avoidance response were observed after 24 hours.

[5] = tested on: cerebral ischemia-reperfusion rats; test: Behavioral disorder and cerebral infarct area in cerebral ischemia-reperfusion rats (MCAO by nylon suture, 1.5 h); format: in vivo, male Wistar rats
Text: Experimental Animal: The same as Example 1
Experimental Equipments: The same as Example 7
Experimental Methods: The rats were anesthetized, and fixed in lateral decubitus position. Under the operating microscope, a midline neck skin incision was made to expose the left common cartotid artery. The surrounding nerves and fascia from the bifurcation of common carotid artery to the vascular of basis cranii were removed.
The internal carotid artery was then separated and carefully separated free from vagus nerve. Pterygopalatine artery was ligated at the root of the internal carotid artery. A 6# needle for injection containing 3# nylon suture (diameter of 0.285 mm) was punctured into the free end of the external carotid artery, advancing the nylon suture into the blood vascular. The needle was carefully withdrawn, and the nylon suture was guided into the internal carotid artery from the distal end of the external carotid artery up till to Willis ring, so as to effectively block the middle cerebral artery.
Depending on the body weight, the distance from the inserted nylon suture to the bifurcation of common carotid artery was 18 to 20 mm. The free end of the external carotid artery and the nylon suture therein were ligated together, in order to prevent bleeding. The muscle and the skin were then sutured layer by layer, and penicillin was dropped to prevent infection. To effectively block the middle cerebral artery, the tip of the nylon suture was made round by burning with the flame, and coated with 0.1% of poly-L-lysine. The nylon suture was baked in a 60° C. oven for 1 hour.
Due to the ability of poly-L-lysine to binding the cell and the protein to the plastic surface, and thus allow the negative charged nylon suture changing into a positive charged one and attract the anion ionic part of the endothelial cell, the nylon suture was closely bond to the endothelial surface, so as to prevent the leakage of the blood from the surrounding of the suture. Only the internal carotoid artery was separated from the animals of pseudo-operation group.
At 1.5 hours after the initiation of MCAO, the nylon suture within the lumen of the internal carotoid artery was carefully withdrawn, and the internal carotoid artery was allowed to reperfusion. The rats were then placed back into the cage.

[6] = tested on: ischemic brain of decapitated mice; test: Ischemic cerebral metabolism of energy induced by decapitation of mice; format: in vivo, KunMing mice; conditions: NBP 50 and 100 mg/kg oral, sodium Phenobarbital 225 mg/kg ip.; decapitated 30 minutes after administration; 15 seconds ischemia; vs control group
Protocol: Experimental Animals: KunMing mice.
Test drug: injectable L-butylphthalide was formulated into an emulsion with Tween-80.
Experimental Methods: KunMing mice of 10 to 22 g were divided into 8 groups with 10 mice per group. dl-, d-, and l-NBP (50 and 100 mg/kg/d), sodium Phenobarbital (225 mg/kg ip.) and the vehicle were orally administered. Thirty minutes after administration, the mice were decapitated.
The time between the decapitation and homogenation, which was 15 seconds, was regarded as cerebral ischemic time. Centrifugation and isolation were conducted by the method of Folbergrova, and the contents of lactic acid, ATP and PCr were determined by enzymological method.

[7] = tested on: cerebral apoplexy in spontaneous hypertension rats; test: Cerebral apoplexy in salt-loaded spontaneous hypertensive rats; format: in vivo; conditions: 25 and 50 mg/kg/d oral
Protocol: Experimental Animals: spontaneous hypertensive rats of 6 weeks old. Experimental Methods: Spontaneous hypertensive rats of 6 weeks old were divided into 8 groups with 10 rats per group. 0.8 to 0.9 g per day of common salt was administered starting from week 6. […] The scores of neurological deficit and the time of death were recorded.

normal rats = format: in vivo, Male wistar rats; conditions: 15 and 30 mg/kg oral; 30 minutes after administration
Protocol: Experimental Animals: Male wistar rats.
Experimental Equipments: SXP operating microscope, 62TZ-V model high frequency electrotome, solid positioner, Diamond Electro-Tech chemical microsensor 1231, two channel physiological parameter recorder.
Experimental Methods: • (1) dl-, d-, and l-NBP (15 and 30 mg/kg) and the vehicle were orally administered to the normal rats, and the changes of cerebral blood flow at different time after the administration were measured. • (2) ligation of cerebral artery was conducted on rats according to the method of Tamura. Oral administration was performed at 10 min after the operation. The rats were divided into 9 groups, which were normal group, pseudo-operation group, vehicle control group, and groups of dl-, d-, and l-NBP (15 and 30 mg/kg).

[8] = 24 hours after intravenous injection

CCCC[C@H]1OC(=O)c2ccccc21 [d-NBP, dextro-butylphthalide]
cerebral infarct area (effect in words) ([1]; 2.5 mg/kg, tendency of reducing): not significant
reduction of cerebral infarct area ([1]; first of three doses, vs model control group): 27.2%
decrease of neurological deficit scores ([1]; high dose, i.v., 24 hours after administration): 28.1%
ED30 (neurological deficit scores) ([1]; i.v., 24 hours after administration): 12.4 mg/kg
neurological deficit scores (effect in words) ([1]; intravenous injection, vs model control group): improvement
decrease of neurological deficit scores ([1]; low dose, i.v., 24 hours after administration): 17.2%
decrease of neurological deficit scores ([1]; moderate dose, i.v., 24 hours after administration): 21.9%
reduction of cerebral infarct area ([1]; second of three doses, vs model control group): 32.7%
reduction of cerebral infarct area ([1]; third of three doses, vs model control group): 39.9%
ED40 (cerebral infarct area) ([1]; vs model control group): 10.3 mg/kg
neural symptoms (behavioral changes scored) [2]: no significant effect
content of K+ in the brain [3]: no significant effect
content of Na+ in the brain [3]: no significant effect
content of water in the brain [3]: no significant effect
times of active avoidance [4]: not observed
neurological deficit scores (effect in words) [5, 8]: improvement
potency on neurological deficit scores compared among l, dl and d-NBP [5, 8]: no significant difference
cerebral infarct area (effect in words) ([5]; intravenous administration, effect increases with dose): significantly reduce
content of ATP in the brain [6]: no such significant effect
content of PCr in the brain [6]: no such significant effect
content of lactic acid in the brain [6]: no such significant effect
preventive and therapeutic effect on cerebral apoplexy (overall) [7]: not significant
cerebral blood flow rate in normal rats (normal rats): no such effects

CCC1(c2ccccc2)C(=O)NC(=O)NC1=O [sodium Phenobarbital]
content of ATP in the brain [6]: increased
content of PCr in the brain [6]: increased
content of lactic acid in the brain [6]: significantly decreased

From patent US9795585B2, “Methods of using L-butylphthalide for the prevention and treatment of cerebral ischemia disease” (priority 2004, dated 2017)
